According to ChEMBL document CHEMBL1135668, “Design, synthesis, structure-activity relationships, and molecular modeling studies of 2,3-diaryl-1,3-thiazolidin-4-ones as potent anti-HIV agents” (J Med Chem, 2002):
Activity calls are given as the source filed them. The rule behind the calls is not given here.

Legend:
[1] = test system: Human immunodeficiency virus 1; assay: Anti-HIV-1 activity against mutant HIV-1 strain (100Leu-Ile) in CEM cells; assay type: functional, organism-based; details: Human immunodeficiency virus 1, CCRF-CEM
[2] = test system: Human immunodeficiency virus 1; assay: Cytotoxic concentration (anti-HIV activity) required to reduce […] by 50% in MT-4 cells; assay type: functional; details: Human immunodeficiency virus 1, MT4
[3] = test system: Human immunodeficiency virus 1; assay: Anti-HIV-1 activity against mutant HIV-1 strain(188 Tyr-His) in CEM cells; assay type: functional, organism-based; details: Human immunodeficiency virus 1, CCRF-CEM
[4] = test system: Human immunodeficiency virus 1; assay: Anti-HIV-1 activity against mutant HIV-1 strain (HIV-1IIIB) in CEM cells; assay type: functional, organism-based; details: Human immunodeficiency virus 1, CCRF-CEM
[5] = test system: Human immunodeficiency virus 1; assay: Selectivity index as the ratio of CC50 to that of EC50 value in MT cells; assay type: functional
[6] = test system: Human immunodeficiency virus 1; assay: Anti-HIV-1 activity against mutant HIV-1 strain (138Glu-Lys) in CEM cells; assay type: functional, organism-based; details: Human immunodeficiency virus 1, CCRF-CEM
[7] = test system: Human immunodeficiency virus 1; assay: Anti-HIV-1 activity against mutant HIV-1 strain (103Lys-Asn) in CEM cells; assay type: functional, organism-based; details: Human immunodeficiency virus 1, CCRF-CEM
[8] = biological target: Human immunodeficiency virus type 1 reverse transcriptase (Human immunodeficiency virus 1, UniProt Q72547); assay: HIV-1 reverse transcriptase (RT) activity using Poly (rC)/oligo (dG) as template/primer and [3H]dGTP
[9] = test system: Human immunodeficiency virus 1; assay: Effective concentration (anti-HIV activity) required to reduce HIV-1 induced cytopathic effect by 50% in MT-4 cells; assay type: functional, organism-based; details: Human immunodeficiency virus 1, MT4
[10] = test system: Human immunodeficiency virus 1; assay: Effective concentration (anti-HIV activity) required to reduce HIV-1 induced cytopathic effect by 50% in MT-4 cells; NA is Not Active.; assay type: functional, organism-based; details: mt4
[11] = test system: Human immunodeficiency virus 1; assay: Effective concentration (anti-HIV activity) required to reduce HIV-1 induced cytopathic effect by 50%in CEM cells; assay type: functional, organism-based; details: Human immunodeficiency virus 1, CCRF-CEM
[12] = Selectivity index as the ratio of CC50 to that of EC50 value in CEM cells; assay type: functional, CCRF-CEM
[13] = test system: Human immunodeficiency virus 1; assay: Concentration required to reduce CEM cell viability by 50%; details: Human immunodeficiency virus 1, CCRF-CEM
[14] = test system: Human immunodeficiency virus 1; assay: (§1) Concentration required to reduced HIV-1-induced cytopathic effect by 50% in CEM cells; assay type: functional; details: Human immunodeficiency virus 1, CCRF-CEM
[15] = Selectivity index as the ratio of CC50 to that of EC50 value.; assay type: functional
[16] = test system: Human immunodeficiency virus 1; assay: Concentration required to reduced HIV-1-induced cytopathic effect by 50%in CEM cells; assay type: functional; details: Human immunodeficiency virus 1, CCRF-CEM
[17] = test system: Human immunodeficiency virus 1; assay: Anti-HIV-1 activity against mutant HIV-1 strain(181 Tyr-Cys) in CEM cells; assay type: functional, organism-based; details: Human immunodeficiency virus 1, CCRF-CEM
[18] = test system: Human immunodeficiency virus 1; assay: as §1; assay type: functional, organism-based; details: Human immunodeficiency virus 1, CCRF-CEM
[19] = test system: Human immunodeficiency virus 1; assay: Effective concentration (anti-HIV activity) required to reduce HIV-1 induced cytopathic effect by 50% in MT-4 cells; NA is Not Active; assay type: functional, organism-based; details: mt4
[20] = biological target: Human immunodeficiency virus type 1 reverse transcriptase (Human immunodeficiency virus 1) (UniProt Q72547); assay: HIV-1 reverse transcriptase (RT) enzymatic activity was evaluated using Poly (rC)/oligo (dG) as template/primer and [3H]dGTP as radio labelled substrate
[21] = test system: Human immunodeficiency virus 1; assay: Concentration required to reduce CEM cell viability by 50%; details: Human immunodeficiency virus 1, CCRF-CEM; remark: listed apart in the source
[22] = test system: Human immunodeficiency virus 1; assay: Effective concentration (anti-HIV activity) required to reduce HIV-1 induced cytopathic effect by 50%in CEM cells; NA is Not Active.; assay type: functional, organism-based; details: ccrf-cem
[23] = biological target: Human immunodeficiency virus type 1 reverse transcriptase (Human immunodeficiency virus 1) (UniProt Q72547); assay: HIV-1 reverse transcriptase (RT) enzymatic activity was evaluated using Poly (rC)/oligo (dG) as template/primer and [3H]dGTP as radio labeled substrate;NA is not active.

SMILES	CC50 [2] [µM]	Selectivity index [5]	IC50 [8] [µM]	EC50 [9] [µM]	EC50 [11] [µM]	Selectivity index [12]	further results
Cc1cccc(N2C(=O)CSC2c2c(Cl)cccc2Cl)n1 (stereo unspecified)	285	6470	2.24	0.044	–	–	EC50 [1]: 0.15 µM; EC50 [3]: 16.2 µM; EC50 [4]: 0.073 µM; EC50 [6]: 0.117 µM; EC50 [7]: ≥ 60 µM
Cc1ccnc(N2C(=O)CSC2c2c(F)cccc2F)c1 (stereo unspecified)	242	976	2.84	0.248	–	–	–
Cc1cccnc1N1C(=O)CSC1c1c(Cl)cccc1Cl (stereo unspecified)	42.6	–	–	–	–	–	EC50 [10]: Not Active
O=C1CSC(c2c(F)cccc2F)N1c1ccc(Cl)cn1 (stereo unspecified)	29.8	4.2	67	7.19	4.13	11	CC50 [13]: 47.1 µM
O=C1CSC(c2c(Cl)cccc2Cl)N1c1ccc(Cl)cn1 (stereo unspecified)	19.2	11	–	1.78	1.86	17	CC50 [14]: 31.1 µM
Cc1ccnc(N2C(=O)CSC2c2c(Cl)cccc2Cl)c1 (stereo unspecified)	> 368	>2500	–	0.147	–	–	–
O=C1CSC(c2c(F)cccc2F)N1c1ccccn1 (stereo unspecified)	> 427	>500	–	0.855	–	–	–
O=C1CSC(c2c(F)cccc2F)N1c1cccnc1 (stereo unspecified)	> 427	–	–	95.1	–	–	Selectivity index [15]: > 4.5
Cc1cccnc1N1C(=O)CSC1c1c(F)cccc1F (stereo unspecified)	> 319	>6	–	53.5	–	–	–
Cc1ccnc(N2C(=O)CSC2c2c(F)cccc2Cl)c1 (stereo unspecified)	33.9	343	4.12	0.099	0.108	525	CC50 [14]: 56.7 µM
O=C1CSC(c2c(Cl)cccc2Cl)N1c1cccc(Br)n1 (stereo unspecified)	67.4	248	–	0.272	0.173	>1431	CC50 [16]: > 248 µM
O=C1CSC(c2c(Cl)cccc2Cl)N1c1ccccc1 (stereo unspecified)	38.1	95	–	0.401	–	–	–
Cc1cccc(N2C(=O)CSC2c2c(F)cccc2F)n1 (stereo unspecified)	126	1536	2.9	0.082	–	–	EC50 [1]: 0.75 µM; EC50 [17]: ≥ 13 µM; EC50 [3]: ≥ 13 µM; EC50 [4]: 0.117 µM; EC50 [6]: 0.39 µM; EC50 [7]: 35.9 µM
Cc1cc(C)nc(N2C(=O)CSC2c2c(F)cccc2F)c1 (stereo unspecified)	43.4	735	4.12	0.059	0.078	>=800	CC50 [14]: ≥ 62.4 µM
O=C1CSC(c2c(Cl)cccc2Cl)N1c1ccncc1 (stereo unspecified)	10	–	–	–	–	–	EC50 [10]: Not Active
O=C1CSC(c2c(Cl)cccc2Cl)N1c1ccccn1 (stereo unspecified)	38.5	216.3	–	0.178	–	–	–

SMILES	CC50 [2] [µM]	Selectivity index [5]	IC50 [8] [µM]	EC50 [9] [µM]	EC50 [11] [µM]	Selectivity index [12]	further results
Cc1cccc(N2C(=O)CSC2c2c(F)cccc2Cl)n1 (stereo unspecified)	31.9	601	2.85	0.053	0.04	1108	CC50 [16]: 44.3 µM
Cc1ccc(N2C(=O)CSC2c2c(Cl)cccc2Cl)nc1 (stereo unspecified)	24.9	17.7	42.4	1.41	1.32	24	EC50 [18]: 31.2 µM
Cc1cc(C)nc(N2C(=O)CSC2c2c(F)cccc2Cl)c1 (stereo unspecified)	41.6	986	–	0.042	–	–	–
O=C1CSC(c2c(Cl)cccc2Cl)N1c1cccnc1 (stereo unspecified)	23.4	–	–	–	–	–	EC50 [19]: Not Active
c1ccc2[nH]c(-c3cscn3)nc2c1 [THIABENDAZOLE]	19.2	54.5	14.6	0.352	1.1	45	EC50 [1]: 3.12 µM; EC50 [17]: 13.8 µM; EC50 [3]: 4.16 µM; CC50 [14]: 50 µM; EC50 [4]: 1.39 µM; EC50 [6]: 1.73 µM; EC50 [7]: 15.6 µM
O=C1CSC(c2c(F)cccc2Cl)N1c1ccc(Br)cn1 (stereo unspecified)	30.7	25	–	1.24	–	–	–
O=C1CSC(c2c(F)cccc2Cl)N1c1ccccn1 (stereo unspecified)	41.7	150	–	0.278	0.242	791	CC50 [16]: 191 µM
O=C1CSC(c2c(F)cccc2F)N1c1ccc(Br)cn1 (stereo unspecified)	36.1	7.4	61.4	4.85	2.5	18	CC50 [13]: 45.8 µM
O=C1CSC(c2c(F)cccc2F)N1c1cccc(Br)n1 (stereo unspecified)	32	1066	–	0.03	0.03	>8980	EC50 [1]: 0.94 µM; EC50 [17]: 1.88 µM; EC50 [3]: 1.02 µM; EC50 [4]: 0.026 µM; EC50 [6]: 0.073 µM; IC50 [20]: 0.91 µM; CC50 [21]: > 269 µM; EC50 [7]: > 11 µM
O=C1CSC(c2c(F)cccc2F)N1c1ccncc1 (stereo unspecified)	33.9	–	–	–	–	–	EC50 [10]: Not Active; EC50 [22]: Not Active; CC50 [13]: 284 µM; IC50 [23]: inactive
Cc1cc(C)nc(N2C(=O)CSC2c2c(Cl)cccc2Cl)c1 (stereo unspecified)	64.1	712	–	0.09	0.13	>=2178	CC50 [13]: ≥ 283 µM
O=C1CSC(c2c(F)cccc2Cl)N1c1ccc(Cl)cn1 (stereo unspecified)	29.4	–	–	2.13	–	–	Selectivity index [15]: 14
Cc1ccc(N2C(=O)CSC2c2c(F)cccc2F)nc1 (stereo unspecified)	202	39.3	–	5.13	–	–	–
O=C1CSC(c2c(Cl)cccc2Cl)N1c1ccc(Br)cn1 (stereo unspecified)	28.2	18.6	56.6	1.51	1.31	20	CC50 [14]: 26 µM
O=C1CSC(c2c(F)cccc2Cl)N1c1cccc(Br)n1 (stereo unspecified)	30.7	484	–	0.064	–	–	–
